Measured values published in patent US12109184B2, “Personalized methods of treating cancer” (CANCER RESEARCH TECHNOLOGY LIMITED, priority 2020, dated 2024).
Entries after “also recorded” stand apart in the source; their conditions may differ.

Legend:
Type in all cases: cell-based
[1] = system: MDA-MB-231, MIAPaCa-2 and PANC-1 cells; test: Cell counting during cysteine starvation, starvation-sensitive cell lines
Method: (§1) The base medium formulation contained 0.2 mM L-histidine, 0.4 mM L-isoleucine, 0.4 mM L-leucine, 0.4 mM L-lysine, 0.2 mM L-phenylalanine, 0.4 mM L-threonine, 0.08 mM L-tryptophan, 0.4 mM L-valine, 0.2 mM L-arginine, 2 mM L-glutamine, 0.2 mM L-tyrosine, 0.4 mM L-alanine, 0.3 mM L-proline, 0.15 mM L-glutamic acid, 0.1 mM L-aspartic acid, 0.2 mM L-asparagine, and 0.4 mM glycine.
(§2) DAPI-stained cell nuclei were detected via microscopy.
(§3) AMD1 inhibitor sardomozide/SAM486A, GPX4 inhibitor RSL3, and CSE inhibitor beta-cyano-L-alanine were used.
(§4) For experiments using spermine oxidase (SMOX) and polyamine oxidase (PAOX) inhibitors or MTOB, cells were pre-treated with stated concentrations for 16 hours in complete medium. After pre-treatment, cells were washed in PBS, and treatment was continued in complete or cysteine-free medium for stated times. After treatment was finished, cells were fixed and stained as described above. For experiments using MTA, polyamines, GPX4 and CSE inhibitors, treatment started at the same time as cysteine starvation. For experiments involving hypoxic conditions, cells were seeded in normoxic conditions and allowed to adhere for 24 hours before control and cysteine starvation medium was added and cells were immediately transferred either to a humidified cell culture incubator set to 37° C. in 20% O2 (normoxia), or a hypoxia chamber set to 37° C. in 1% O2 (hypoxia) for the stated times. Cells were fixed immediately and stained as described above.

[2] = system: HCT116, SW480 and MDA-MB-468 cells; test: Cell counting during cysteine starvation, starvation-resistant cell lines; settings: for cysteine starvation sensitivity on polyamine supplementation: polyamine 20 μM in medium without cysteine
Method: as §1, §2, §3, §4

[3] = system: MDA-MB-231, PANC-1, and MIAPaCa-2 cells; test: CellROX assay on live cells, starvation-sensitive cell lines; settings: −Cys, 16 h timepoint
Method: (§5) Cells were seeded as described above. Live cells were stained with Hoechst 33342 nuclear stain for 20 min. The medium was removed, and cells were stained in 100 μl medium containing CellTracker™ Green CMFDA Dye and Hoechst stain for 40 min. The cells were then washed with PBS, and 300 μl of the relevant experimental medium was added for 1 hour. Then, CellROX® Deep Red was spiked into the medium, and the cells were incubated for 40 min. The medium was removed, the cells were washed with PBS, and new relevant experimental medium including CellROX was added. The cells were imaged using an Operetta automated microscope platform set to 37° C. in 5% CO2 every hour for 16-24 hours. I

[4] = system: MTAP-deleted HCT116 cells; test: Cell counting during cysteine starvation, MTAP-deleted HCT116; settings: for cell survival during cysteine starvation: SMOX inhibitor, PAOX inhibitor or MTOB supplementation
Source text: [NT] Successfully transfected cells were selected with puromycin and grown as clonal colonies. Clones were selected based initially on MTA efflux measured by liquid chromatography mass spectrometry (LC-MS). Clones with greatest MTA efflux were selected, and methylthioadenosine phosphorylase knockout (MTAP-KO) was then confirmed by western blot. MTAP-KO HCT116 cells were transfected with pCMV-Hygro-MTAP and pCMV-Hygro-negative control vector, selected using hygromycin B, and grown as clonal colonies. Clones were selected based initially on MTA efflux measured by LC-MS. Clones with low MTA efflux were selected, then MTAP re-expression was confirmed by western blot. […] DAPI-stained cell nuclei were detected via microscopy. […] For experiments using spermine oxidase (SMOX) and polyamine oxidase (PAOX) inhibitors or MTOB, cells were pre-treated with stated concentrations for 16 hours in complete medium. After pre-treatment, cells were washed in PBS, and treatment was continued in complete or cysteine-free medium for stated times. After treatment was finished, cells were fixed and stained as described above. For experiments using MTA, polyamines, GPX4 and CSE inhibitors, treatment started at the same time as cysteine starvation. For experiments involving hypoxic conditions, cells were seeded in normoxic conditions and allowed to adhere for 24 hours before control and cysteine starvation medium was added and cells were immediately transferred either to a humidified cell culture incubator set to 37° C. in 20% O2 (normoxia), or a hypoxia chamber set to 37° C. in 1% O2 (hypoxia) for the stated times. Cells were fixed immediately and stained as described above.

[5] = system: MTAP-expressing HCT116 cells; test: Cell counting during cysteine starvation, MTAP-expressing HCT116; settings: SMOX inhibitor, PAOX inhibitor or MTOB supplementation
Source text: [NT] Successfully transfected cells were selected with puromycin and grown as clonal colonies. Clones were selected based initially on MTA efflux measured by liquid chromatography mass spectrometry (LC-MS). Clones with greatest MTA efflux were selected, and methylthioadenosine phosphorylase knockout (MTAP-KO) was then confirmed by western blot. MTAP-KO HCT116 cells were transfected with pCMV-Hygro-MTAP and pCMV-Hygro-negative control vector, selected using hygromycin B, and grown as clonal colonies. Clones were selected based initially on MTA efflux measured by LC-MS. Clones with low MTA efflux were selected, then MTAP re-expression was confirmed by western blot. […] DAPI-stained cell nuclei were detected via microscopy. For experiments using spermine oxidase (SMOX) and polyamine oxidase (PAOX) inhibitors or MTOB, cells were pre-treated with stated concentrations for 16 hours in complete medium. After pre-treatment, cells were washed in PBS, and treatment was continued in complete or cysteine-free medium for stated times. After treatment was finished, cells were fixed and stained as described above. For experiments using MTA, polyamines, GPX4 and CSE inhibitors, treatment started at the same time as cysteine starvation. For experiments involving hypoxic conditions, cells were seeded in normoxic conditions and allowed to adhere for 24 hours before control and cysteine starvation medium was added and cells were immediately transferred either to a humidified cell culture incubator set to 37° C. in 20% O2 (normoxia), or a hypoxia chamber set to 37° C. in 1% O2 (hypoxia) for the stated times. Cells were fixed immediately and stained as described above.

[6] = system: breast, colorectal and pancreatic cancer cell lines; test: Cell counting in complete or cysteine-free medium, cell lines not given; settings: for duration of rescue from cysteine starvation: AMD1 inhibitor or MTOB supplementation
Method: as §1, §2, §3, §4

[7] = system: MDA-MB-231, PANC-1, and MIAPaCa-2 cells; test: LC-MS analysis with labelled methionine (polyamine and TsP labelling); settings: 20 μM sardomozide or 0.1 mM MTOB
Method: For experiments using labelled methionine, the same basic protocol was used as described for the steady state metabolite measurements described above. Experimental media were formulated lacking methionine or serine (described above) and supplemented with the stated concentrations of ^13C5^15N1-methionine, ^13C3^15N1-serine or ^34S1-methionine. Metabolites were extracted as described above.
Prepared samples were analyzed on an LC-MS platform consisting of an Accela™ 600 LC system and an Exactive™ mass spectrometer. A Sequant® ZIC®-HILIC column (4.6 mm×150 mm, 3.5 μm) was used to separate the metabolites with the mobile phase using A=0.1% (v/v) formic acid in water and B=0.1% (v/v) formic acid in acetonitrile. A gradient program starting at 20% of A and linearly increasing to 80% at 30 min was used followed by washing (92% of A for 5 mins) and re-equilibration (20% of A for 10 min) steps. The total run time of the method was 45 min. The LC stream was desolvated and ionized in the HESI probe. The Exactive™ mass spectrometer was operated in full scan mode over a mass range of 70-1,200 m/z at a resolution of 50,000 with polarity switching. The LC-MS raw data was converted into mzML files by using ProteoWizard and imported to MZMine 2.10 for peak extraction and sample alignment. An in-house database including all possible ^13C and ^15N isotopic m/z values of the relevant metabolites was used for the assignment of LCMS signals. Finally the peak areas were used for comparative quantification.

cysteine starved cells = test: CellROX assay on live cells supplemented with polyamines; settings: polyamine 20 μM in medium without cysteine
Method: as §5

Structure (SMILES): C=C=CCNCCCCNCC=C=C [MDL 72527]
- cell death during cysteine starvation ([1]; SMOX inhibitor 50 μM or PAOX inhibitor 10, 40, 80 μM, 16 h pre-treatment then −Cys): prevented cell death
- cell survival and growth under polyamine treatment concurrent with cysteine starvation ([2]; SMOX and PAOX inhibitors with spermidine or spermine, −Cys): restored HCT116, SW480, and MDA-MB-468 cell survival and growth
- advantage during cysteine starvation ([2]; SMOX or PAOX inhibitor, 16 h pre-treatment then −Cys): little or no additional advantage
- ROS levels (CellROX staining intensity) ([3]; 50 μM SMOX inhibitor): allowed cells to maintain lower ROS levels
- cell survival during cysteine starvation [4]: rescued cell survival
- impact on cell survival during cysteine starvation [5]: little impact

Structure (SMILES): CSCCC(=O)C(=O)O [MTOB, 4-methylthio-2-oxobutanoic acid]
- rescue from cysteine starvation ([6]; 0.1 mM MTOB 16 h pre-treatment, then −Cys with MTOB 32 h): rescued cells from cysteine starvation
- duration of rescue from cysteine starvation [6]: temporary
- levels of TsP intermediates [7]: did not appreciably increase
- polyamine synthesis (dc-SAM and polyamine labelling) [7]: marked inhibition of polyamine synthesis
- cell survival during cysteine starvation [4]: rescued cell survival
- impact on cell survival during cysteine starvation [5]: little impact

Structure (SMILES): N=C(N)N/N=C1\CCc2c(C(=N)N)cccc21 [sardomozide]
- cell death in response to cysteine starvation ([1]; AMD1 inhibitor pre-treatment 16 h): prevented cell death
- duration of rescue from cysteine starvation [6]: temporary
- ROS levels (CellROX staining intensity) ([3]; 20 μM AMD1 inhibitor): diminished ROS levels
- levels of TsP intermediates [7]: did not appreciably increase
- polyamine synthesis (dc-SAM and polyamine labelling) [7]: marked inhibition of polyamine synthesis
- cell survival in response to cysteine starvation ([4]; AMD1 inhibitor): restored cell survival

Structure (SMILES): NCCCCNCCCN [spermidine]
- cysteine starvation sensitivity on polyamine supplementation [2]: dramatic impact; also recorded: dramatically sensitized cells to cysteine starvation
- ROS levels (CellROX deep red) (cysteine starved cells): rapid increase in ROS levels; also recorded: increased cellular ROS levels

Structure (SMILES): NCCCNCCCCNCCCN [spermine]
- cysteine starvation sensitivity on polyamine supplementation [2]: dramatic impact; also recorded: dramatically sensitized cells to cysteine starvation
- ROS levels (CellROX deep red) (cysteine starved cells): rapid increase in ROS levels; also recorded: increased cellular ROS levels
